Results reported in patent publication US20070287752A1, “Ophthalmic Compositions Comprising A Branched, Glycerol Compound” (priority 2006, published 2007).

Tested on: Candida albicans (ATCC 10231)
Test: Preservative/disinfectant system efficacy testing (log reduction)
Assay type: cell-based
Experimental: The ophthalmic compositions are evaluated in accordance with specific procedures outlined by the US Food & Drug Administration and the International Organization for Standardization for the testing of microbiocidal efficacy.

CCCCC(CC)COCC(O)CO (centres unmarked) [EHOPD, 3-[(2-ethylhexyl)oxy]-1,2-propanediol]
log reduction C. albicans (1 hr, Table 5A multi-purpose lens care solution, 10% organic soil, disinfectant concentrations as in label): 2.1
log reduction C. albicans (1 hr, phosphate buffered saline, 10% organic soil, concentrations as in label (Table 4)): >5.0
log reduction C. albicans (4 hr, Table 5A multi-purpose lens care solution, 10% organic soil, disinfectant concentrations as in label): 2.8
log reduction C. albicans (4 hr, phosphate buffered saline, 10% organic soil, concentrations as in label (Table 4)): >5.0
log reduction C. albicans (EHOPD 0.0001 wt %, 1 hr, borate buffered saline, 10% organic soil): 2.3
log reduction C. albicans (EHOPD 0.0001 wt %, 1 hr, phosphate buffered saline, 10% Organic Soil): 2.3
log reduction C. albicans (EHOPD 0.0001 wt %, 4 hr, borate buffered saline, 10% organic soil): 2.3
log reduction C. albicans (EHOPD 0.0001 wt %, 4 hr, phosphate buffered saline, 10% Organic Soil): 2.3
log reduction C. albicans (EHOPD 0.001 wt %, 1 hr, borate buffered saline, 10% organic soil): 2.3
log reduction C. albicans (EHOPD 0.001 wt %, 1 hr, phosphate buffered saline, 10% Organic Soil): 2.3
log reduction C. albicans (EHOPD 0.001 wt %, 4 hr, borate buffered saline, 10% organic soil): 2.3
log reduction C. albicans (EHOPD 0.001 wt %, 4 hr, phosphate buffered saline, 10% Organic Soil): 2.3
log reduction C. albicans (EHOPD 0.01 wt %, 1 hr, Table 3A multi-purpose lens care formulation, 10% organic soil): 2.0
log reduction C. albicans (EHOPD 0.01 wt %, 1 hr, borate buffered saline, 10% organic soil): 2.3
log reduction C. albicans (EHOPD 0.01 wt %, 1 hr, phosphate buffered saline, 10% Organic Soil): 2.3
log reduction C. albicans (EHOPD 0.01 wt %, 4 hr, Table 3A multi-purpose lens care formulation, 10% organic soil): 2.0
log reduction C. albicans (EHOPD 0.01 wt %, 4 hr, borate buffered saline, 10% organic soil): 2.3
log reduction C. albicans (EHOPD 0.01 wt %, 4 hr, phosphate buffered saline, 10% Organic Soil): 2.3
log reduction C. albicans (EHOPD 0.1 wt %, 1 hr, Table 3A multi-purpose lens care formulation, 10% organic soil): 2.0
log reduction C. albicans (EHOPD 0.1 wt %, 1 hr, borate buffered saline, 10% organic soil): 5.4
log reduction C. albicans (EHOPD 0.1 wt %, 1 hr, phosphate buffered saline, 10% Organic Soil): 3.8
log reduction C. albicans (EHOPD 0.1 wt %, 4 hr, Table 3A multi-purpose lens care formulation, 10% organic soil): 2.0
log reduction C. albicans (EHOPD 0.1 wt %, 4 hr, borate buffered saline, 10% organic soil): >5.7
log reduction C. albicans (EHOPD 0.1 wt %, 4 hr, phosphate buffered saline, 10% Organic Soil): >5.7
log reduction C. albicans (EHOPD 0.15 wt %, 1 hr, Table 3A multi-purpose lens care formulation, 10% organic soil): 2.0
log reduction C. albicans (EHOPD 0.15 wt %, 4 hr, Table 3A multi-purpose lens care formulation, 10% organic soil): 2.0
log reduction C. albicans (EHOPD 0.25 wt %, 1 hr, Table 3A multi-purpose lens care formulation, 10% organic soil): 2.0
log reduction C. albicans (EHOPD 0.25 wt %, 4 hr, Table 3A multi-purpose lens care formulation, 10% organic soil): 2.0
log reduction C. albicans (EHOPD 0.50 wt %, 1 hr, Table 3A multi-purpose lens care formulation, 10% organic soil): 2.0
log reduction C. albicans (EHOPD 0.5 wt %, 1 hr, borate buffered saline, 10% organic soil): 5.1
log reduction C. albicans (EHOPD 0.5 wt %, 1 hr, phosphate buffered saline, 10% Organic Soil): 3.8
log reduction C. albicans (EHOPD 0.50 wt %, 4 hr, Table 3A multi-purpose lens care formulation, 10% organic soil): 3.1
log reduction C. albicans (EHOPD 0.5 wt %, 4 hr, borate buffered saline, 10% organic soil): >5.7
log reduction C. albicans (EHOPD 0.5 wt %, 4 hr, phosphate buffered saline, 10% Organic Soil): >5.7
log reduction C. albicans (EHOPD 0.75 wt %, 1 hr, Table 3A multi-purpose lens care formulation, 10% organic soil): 4.2
log reduction C. albicans (EHOPD 0.75 wt %, 4 hr, Table 3A multi-purpose lens care formulation, 10% organic soil): >5.5
log reduction C. albicans (EHOPD 1.0 wt %, 1 hr, Table 3A multi-purpose lens care formulation, 10% organic soil): >5.5
log reduction C. albicans (EHOPD 1.0 wt %, 4 hr, Table 3A multi-purpose lens care formulation, 10% organic soil): >5.5
